Laboratory results: patent publication US10865211B2 (ENANTA PHARMACEUTICALS, INC, priority 2018, dated 2020)

What was measured:
2.2.15 cells = test: Antiviral activity in 2.2.15 cells: reduction of viral product accumulation (qPCR, HBsAg/HBeAg ELISA); type: cell-based, HBV; settings: Hepatitis B virus, 120 h, day 5 post treatment, concentration reducing viral product accumulation in cell lysates or supernatants by 50% relative to no drug controls
Protocol: 2.2.15 cells are passaged upon attaining confluency in DMEM/F12 media in the presence of 10% FBS, Penn/Strep, and 250 ug/mL G418. Novel compounds are 5 fold serially diluted in DMSO and added to 96 well plates containing 35,000 cells/well at a 1:200 dilution so that the final concentration of DMSO is 0.5%. On day 5, post treatment cell lysates and supernatants are harvested for analysis.
Cells are lysed using Agilent Sidestep Lysis buffer, diluted 1:100 and quantified via quantitative real time PCR. Commercially available ELISA kits are used to quantitate the viral proteins HBsAg (Alpco) or HBeAg (US Biological) by following the manufacturer's recommended protocol after diluting samples to match the linear range of their respective assays. Irrespective of readout, compound concentrations that reduce viral product accumulation in the cell lysates or supernatants by 50% relative to no drug controls (EC50) are reported; EC50 ranges are as follows: A<0.1 μM; B 0.1-1 μM; C>1 μM.

[1] = Compound induced cellular toxicity in HepG2 cells (ATPlite); type: cell-based; settings: human, three days, ATPlite 1 Step, concentration reducing total ATP levels by 50% relative to no drug controls
Protocol: At day 3, post seeding cells are treated with ATPlite 1 Step according to the manufacturer's instructions.

For `CC(C)(C)[C@@H]1Cc2c(oc3c(-c4cnco4)cccc23)-c2cc(=O)c(C(=O)O)cn21` [Example 27, (S)-6-(tert-butyl)-11-(oxazol-5-yl)-2-oxo-6,7-dihydro-2H-benzofuro[2,3-a]quinolizine-3-carboxylic acid], the EC50 (2.2.15 cells) was under 0.1 µM and the CC50 at 3 days [1] was 10 to 25 µM.
With `Cn1nccc1-c1cccc2c3c(oc12)-c1cc(=O)c(C(=O)O)cn1[C@H](C(C)(C)C)C3` [Example 28, (S)-6-(tert-butyl)-11-(1-methyl-1H-pyrazol-5-yl)-2-oxo-6,7-dihydro-2H-benzofuro[2,3-a]quinolizine-3-carboxylic acid] the EC50 (2.2.15 cells) was under 0.1 µM and the CC50 at 3 days [1] was over 25 µM.
With `Cn1cc(-c2cccc3c4c(oc23)-c2cc(=O)c(C(=O)O)cn2[C@H](C(C)(C)C)C4)cn1` [Example 29, (S)-6-(tert-butyl)-11-(1-methyl-1H-pyrazol-4-yl)-2-oxo-6,7-dihydro-2H-benzofuro[2,3-a]quinolizine-3-carboxylic acid] the EC50 (2.2.15 cells) was under 0.1 µM and the CC50 at 3 days [1] was 10 to 25 µM.
Molecule `Cn1ccc(-c2cccc3c4c(oc23)-c2cc(=O)c(C(=O)O)cn2[C@H](C(C)(C)C)C4)n1` [Example 30, (S)-6-(tert-butyl)-11-(1-methyl-1H-pyrazol-3-yl)-2-oxo-6,7-dihydro-2H-benzofuro[2,3-a]quinolizine-3-carboxylic acid] has an EC50 (2.2.15 cells) of under 0.1 µM and a CC50 at 3 days [1] of 10 to 25 µM.
Molecule `CC(C)(C)[C@@H]1Cc2c(oc3c(C#N)cccc23)-c2cc(=O)c(C(=O)O)cn21` [Example 31, (S)-6-(tert-butyl)-11-cyano-2-oxo-6,7-dihydro-2H-benzofuro[2,3-a]quinolizine-3-carboxylic acid] has an EC50 (2.2.15 cells) of under 0.1 µM and a CC50 at 3 days [1] of over 25 µM.
`CC(C)(C)[C@@H]1Cc2c(oc3c(-c4cn[nH]c4)cccc23)-c2cc(=O)c(C(=O)O)cn21` [Example 32, (S)-6-(tert-butyl)-2-oxo-11-(1H-pyrazol-4-yl)-6,7-dihydro-2H-benzofuro[2,3-a]quinolizine-3-carboxylic acid] gave an EC50 (2.2.15 cells) of under 0.1 µM and a CC50 at 3 days [1] of over 25 µM.
With `CC(C)(C)[C@@H]1Cc2c(oc3c(-c4ccn[nH]4)cccc23)-c2cc(=O)c(C(=O)O)cn21` [Example 33, (S)-6-(tert-butyl)-2-oxo-11-(1H-pyrazol-5-yl)-6,7-dihydro-2H-benzofuro[2,3-a]quinolizine-3-carboxylicacid] the EC50 (2.2.15 cells) was under 0.1 µM and the CC50 at 3 days [1] was over 25 µM.
Work on `CC(C)(C)[C@@H]1Cc2c(oc3c(-c4ccco4)cccc23)-c2cc(=O)c(C(=O)O)cn21` [Example 34, (S)-6-(tert-butyl)-11-(furan-2-yl)-2-oxo-6,7-dihydro-2H-benzofuro[2,3-a]quinolizine-3-carboxylic acid] yielded an EC50 (2.2.15 cells) of under 0.1 µM and a CC50 at 3 days [1] of 10 to 25 µM.
`CC(C)(C)[C@@H]1Cc2c(oc3c(-c4ccsc4)cccc23)-c2cc(=O)c(C(=O)O)cn21` [Example 35, (S)-6-(tert-butyl)-2-oxo-11-(thiophen-3-yl)-6,7-dihydro-2H-benzofuro[2,3-a]quinolizine-3-carboxylic acid] gave an EC50 (2.2.15 cells) of under 0.1 µM and a CC50 at 3 days [1] of over 25 µM.
For `CC(C)(C)[C@@H]1Cc2c(oc3c(N4CCC(F)(F)C4)cccc23)-c2cc(=O)c(C(=O)O)cn21` [Example 36, (S)-6-(tert-butyl)-11-(3,3-difluoropyrrolidin-1-yl)-2-oxo-6,7-dihydro-2H-benzofuro[2,3-a]quinolizine-3-carboxylic acid], the EC50 (2.2.15 cells) was under 0.1 µM and the CC50 at 3 days [1] was over 25 µM.
Work on `CC(C)(C)[C@@H]1Cc2c(oc3c(-c4cccs4)cccc23)-c2cc(=O)c(C(=O)O)cn21` [Example 37, (S)-6-(tert-butyl)-2-oxo-11-(thiophen-2-yl)-6,7-dihydro-2H-benzofuro[2,3-a]quinolizine-3-carboxylic acid] yielded an EC50 (2.2.15 cells) of under 0.1 µM and a CC50 at 3 days [1] of over 25 µM.
Work on `CC(C)(C)[C@@H]1Cc2c(oc3c(-c4cnsc4)cccc23)-c2cc(=O)c(C(=O)O)cn21` [Example 38, (S)-6-(tert-butyl)-11-(isothiazol-4-yl)-2-oxo-6,7-dihydro-2H-benzofuro[2,3-a]quinolizine-3-carboxylic acid] yielded an EC50 (2.2.15 cells) of under 0.1 µM and a CC50 at 3 days [1] of 10 to 25 µM.
In the case of `CC(C)(C)[C@@H]1Cc2c(oc3c(-c4cscn4)cccc23)-c2cc(=O)c(C(=O)O)cn21` [Example 39, (S)-6-(tert-butyl)-2-oxo-11-(thiazol-4-yl)-6,7-dihydro-2H-benzofuro[2,3-a]quinolizine-3-carboxylic acid], the EC50 (2.2.15 cells) is reported as under 0.1 µM and the CC50 at 3 days [1] is reported as 10 to 25 µM.
In the case of `CC(C)(C)[C@@H]1Cc2c(oc3c(-c4nccs4)cccc23)-c2cc(=O)c(C(=O)O)cn21` [Example 41, (S)-6-(tert-butyl)-2-oxo-11-(thiazol-2-yl)-6,7-dihydro-2H-benzofuro[2,3-a]quinolizine-3-carboxylic acid], the EC50 (2.2.15 cells) is reported as under 0.1 µM and the CC50 at 3 days [1] is reported as 10 to 25 µM.
Work on `CC(C)(C)[C@@H]1Cc2c(oc3c(-n4cccn4)cccc23)-c2cc(=O)c(C(=O)O)cn21` [Example 42, (S)-6-(tert-butyl)-2-oxo-11-(1H-pyrazol-1-yl)-6,7-dihydro-2H-benzofuro[2,3-a]quinolizine-3-carboxylic acid] yielded an EC50 (2.2.15 cells) of under 0.1 µM and a CC50 at 3 days [1] of over 25 µM.
Work on `CC(C)(C)[C@@H]1Cc2c(oc3c(C4CC4)cccc23)-c2cc(=O)c(C(=O)O)cn21` [Example 43, (S)-6-(tert-butyl)-11-cyclopropyl-2-oxo-6,7-dihydro-2H-benzofuro[2,3-a]quinolizine-3-carboxylic acid] yielded an EC50 (2.2.15 cells) of under 0.1 µM and a CC50 at 3 days [1] of 10 to 25 µM.
With `COc1cccc2c3c(oc12)-c1cc(=O)c(C(=O)O)cn1[C@H](C(C)(C)C)C3` [Example 45, (S)-6-(tert-butyl)-11-methoxy-2-oxo-6,7-dihydro-2H-benzofuro[2,3-a]quinolizine-3-carboxylic acid] the EC50 (2.2.15 cells) was under 0.1 µM and the CC50 at 3 days [1] was over 25 µM.
`CC(C)(C)[C@@H]1Cc2c(oc3c(OC4COC4)cccc23)-c2cc(=O)c(C(=O)O)cn21` [Example 46, (S)-6-(tert-butyl)-11-(oxetan-3-yloxy)-2-oxo-6,7-dihydro-2H-benzofuro[2,3-a]quinolizine-3-carboxylic acid] gave an EC50 (2.2.15 cells) of under 0.1 µM and a CC50 at 3 days [1] of over 25 µM.
`CC(C)(C)[C@@H]1Cc2c(oc3c(OC4CC4)cccc23)-c2cc(=O)c(C(=O)O)cn21` [Example 47, (S)-6-(tert-butyl)-11-cyclopropoxy-2-oxo-6,7-dihydro-2H-benzofuro[2,3-a]quinolizine-3-carboxylic acid] showed an EC50 (2.2.15 cells) of under 0.1 µM and a CC50 at 3 days [1] of 10 to 25 µM.
In the case of `CC(C)(C)[C@@H]1Cc2c(oc3c(-c4ccoc4)cccc23)-c2c(F)c(=O)c(C(=O)O)cn21` [Example 48, (S)-6-(tert-butyl)-1-fluoro-11-(furan-3-yl)-2-oxo-6,7-dihydro-2H-benzofuro[2,3-a]quinolizine-3-carboxylic acid], the EC50 (2.2.15 cells) is reported as under 0.1 µM and the CC50 at 3 days [1] is reported as over 25 µM.
For `CC(C)(C)[C@@H]1Cc2c(oc3c(-c4ccco4)cccc23)-c2c(F)c(=O)c(C(=O)O)cn21` [Example 49, (S)-6-(tert-butyl)-1-fluoro-11-(furan-2-yl)-2-oxo-6,7-dihydro-2H-benzofuro[2,3-a]quinolizine-3-carboxylic acid], the EC50 (2.2.15 cells) was under 0.1 µM and the CC50 at 3 days [1] was over 25 µM.
With `CC(C)(C)[C@@H]1Cc2c(oc3c(-c4cn[nH]c4)cccc23)-c2c(F)c(=O)c(C(=O)O)cn21` [Example 50, (S)-6-(tert-butyl)-1-fluoro-2-oxo-11-(1H-pyrazol-4-yl)-6,7-dihydro-2H-benzofuro[2,3-a]quinolizine-3-carboxylic acid] the EC50 (2.2.15 cells) was under 0.1 µM and the CC50 at 3 days [1] was over 25 µM.
In the case of `CC(C)(C)[C@@H]1Cc2c(oc3c(-c4ccn[nH]4)cccc23)-c2c(F)c(=O)c(C(=O)O)cn21` [Example 51, (S)-6-(tert-butyl)-1-fluoro-2-oxo-11-(1H-pyrazol-5-yl)-6,7-dihydro-2H-benzofuro[2,3-a]quinolizine-3-carboxylic acid], the EC50 (2.2.15 cells) is reported as under 0.1 µM and the CC50 at 3 days [1] is reported as over 25 µM.
Work on `CC(C)(C)[C@@H]1Cc2c(oc3c(-c4cnsc4)cccc23)-c2c(F)c(=O)c(C(=O)O)cn21` [Example 52, (S)-6-(tert-butyl)-1-fluoro-11-(isothiazol-4-yl)-2-oxo-6,7-dihydro-2H-benzofuro[2,3-a]quinolizine-3-carboxylic acid] yielded an EC50 (2.2.15 cells) of under 0.1 µM and a CC50 at 3 days [1] of over 25 µM.
`CC(C)(C)[C@@H]1Cc2c(oc3c(C#N)cccc23)-c2c(F)c(=O)c(C(=O)O)cn21` [Example 53, (S)-6-(tert-butyl)-11-cyano-1-fluoro-2-oxo-6,7-dihydro-2H-benzofuro[2,3-a]quinolizine-3-carboxylic acid] gave an EC50 (2.2.15 cells) of under 0.1 µM and a CC50 at 3 days [1] of over 25 µM.
Molecule `CC(C)(C)[C@@H]1Cc2c(oc3c(-c4cccs4)cccc23)-c2c(F)c(=O)c(C(=O)O)cn21` [Example 54, (S)-6-(tert-butyl)-1-fluoro-2-oxo-11-(thiophen-2-yl)-6,7-dihydro-2H-benzofuro[2,3-a]quinolizine-3-carboxylic acid] has an EC50 (2.2.15 cells) of under 0.1 µM and a CC50 at 3 days [1] of over 25 µM.
With `Cn1cc(-c2cccc3c4c(oc23)-c2c(F)c(=O)c(C(=O)O)cn2[C@H](C(C)(C)C)C4)cn1` [Example 55, (S)-6-(tert-butyl)-1-fluoro-11-(1-methyl-1H-pyrazol-4-yl)-2-oxo-6,7-dihydro-2H-benzofuro[2,3-a]quinolizine-3-carboxylic acid] the EC50 (2.2.15 cells) was under 0.1 µM and the CC50 at 3 days [1] was over 25 µM.
Molecule `CC(C)(C)[C@@H]1Cc2c(oc3c(-c4ccsc4)cccc23)-c2c(F)c(=O)c(C(=O)O)cn21` [Example 57, (S)-6-(tert-butyl)-1-fluoro-2-oxo-11-(thiophen-3-yl)-6,7-dihydro-2H-benzofuro[2,3-a]quinolizine-3-carboxylic acid] has an EC50 (2.2.15 cells) of under 0.1 µM and a CC50 at 3 days [1] of over 25 µM.
